Assay [1] deals with T1, Carbonic anhydrase 12 (Homo sapiens, UniProt O43570). As to the kind of experiment: Inhibition of human carbonic anhydrase 12.
In assay [2] the target is T1, Carbonic anhydrase 12. The assay is described as follows: Binding affinity to human recombinant carbonic anhydrase 12 expressed in Escherichia coli Rosetta (DE3) assessed as protein stability at pH 5 by fluorescent thermal shift assay.
The target in assay [3] is T1, Carbonic anhydrase 12. The assay is described as follows: Binding affinity to human recombinant carbonic anhydrase 12 expressed in Escherichia coli Rosetta (DE3) assessed as protein stability at pH 10 by fluorescent thermal shift assay.
Assay [4] has as its target T1, Carbonic anhydrase 12. The assay is described as follows: Binding affinity to human recombinant carbonic anhydrase 12 expressed in Escherichia coli Rosetta (DE3) assessed as protein stability at pH 6 by fluorescent thermal shift assay.

This note sets out measurements from ChEMBL document CHEMBL2331104, “Characterization of human carbonic anhydrase XII stability and inhibitor binding” (Bioorg Med Chem, 2013).

Calls of active or inactive are those of the source. The calls are words filed in the database; no cut-off is given here.

A word on the Ki: it is the equilibrium dissociation constant of an inhibitor or competing ligand from its target. A high value points to a looser hold on the target.

T1 sequence (O43570 whole entry): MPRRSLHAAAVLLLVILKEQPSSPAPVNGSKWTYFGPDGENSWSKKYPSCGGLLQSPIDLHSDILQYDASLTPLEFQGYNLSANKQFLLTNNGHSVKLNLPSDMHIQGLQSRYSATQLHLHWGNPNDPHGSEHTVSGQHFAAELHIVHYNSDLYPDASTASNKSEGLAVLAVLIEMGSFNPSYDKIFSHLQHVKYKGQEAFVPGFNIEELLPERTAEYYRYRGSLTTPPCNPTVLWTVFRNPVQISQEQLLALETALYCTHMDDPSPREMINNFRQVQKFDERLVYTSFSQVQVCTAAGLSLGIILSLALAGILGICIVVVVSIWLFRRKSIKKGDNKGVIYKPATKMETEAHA

`CCCc1ccc2ccc(=O)oc2c1C(C)=O`: the Ki in assay [1] is 0.98 nM.

Consider `CCOc1ccc2nc(S(N)(=O)=O)sc2c1`, for which the result in assay [2] and in assay [3] was inactive. Besides, the outcome in assay [4] was Active.

Turning to `NS(=O)(=O)C(F)(F)F`, the result in assay [2] and in assay [3] was inactive. Besides, the result in assay [4] was Active.

On to `CCc1ccc2ccc(=O)oc2c1C(C)=O`, for which the Ki in assay [1] was found to be 1 nM.
